Results from BigSolDB 2.1.

Nc1ccc(Oc2ccc(N)cc2)cc1
solubility (mole fraction)
Settings | 293.15 K | 298.15 K | 303.15 K | 308.15 K | 313.15 K | 318.15 K | 323.15 K | 328.15 K | 333.15 K
in DMAc | 0.14 | 0.144 | 0.148 | 0.152 | 0.157 | 0.164 | 0.166 | 0.177 | 0.184
in DMF | 0.113 | 0.117 | 0.12 | 0.126 | 0.132 | 0.139 | 0.146 | 0.152 | 0.161
in DMSO | 0.149 | 0.153 | 0.159 | 0.165 | 0.171 | 0.181 | 0.185 | 0.192 | 0.201
